In patent publication US20040254247A1, “Method and composition for treatnment of ocular hypertension and glaucoma” (priority 2001, published 2004):
Like-named read-outs stand apart in the source and are kept apart here.

How the values were obtained:
[1] = test system: eye of Dutch rabbits; assay: 13-week repeated ocular administration, irritable response in cornea, conjunctiva or iris; format: in vivo
Protocol: The administration was performed 4 times a day with 2-hour intervals for 13 weeks. The cornea, conjunctiva and iris were observed about occurrence of irritable response before, and 4, 8, and 13 weeks after the initiation of the administration. The observation was performed within the time from 0.5 hour to 2 hours after the last administration of the day. The cornea was observed about a presence of opacity and its area in the cornea. The conjunctiva was observed about occurrence of hyperemia, redness and swelling. The iris was observed about occurrence of hyperemia, congestion, swelling and hemorrhage. The ratio of cases showing irritable response in the cornea, conjunctiva or iris was evaluated by percent in the group.

[2] = test system: eye of healthy volunteers; assay: Intraocular pressure lowering effect in healthy volunteers (applanation tonometer); format: in vivo, human; details: for Intraocular pressure lowering effect (difference in IOP between test eye and control eye): 12 μg/eye; for lowered the IOP by, as compared with the control eye: 12 μg
Protocol: The vehicle solution was ocularly administered to the contralateral eye (control eye). Intraocular pressure (IOP) was measured by means of an applanation tonometer before, and 4, 6, and 12 hours after the administration. The IOP lowering effect of the test compound was evaluated based on difference in IOP between test eye and the control eye at each time point of IOP measurement.

[3] = test system: monkey eyes; assay: Effects on IOP in monkey eyes (applanation pneumatonometer); format: in vivo, cynomolgus monkeys; details: 15 μg/eye
Protocol: (§1) Nine male cynomolgus monkeys (body weights of animals ranged between 3.2 and 5.4 kg) without abnormalities in the anterior segment of the eye were used.
(§2) The left eye received an equal volume of the vehicle.
Intraocular pressure (IOP) measurements were conducted by means of an applanation pneumatonometer (Model 30 Classic™, Mentor O & O, Inc., USA) immediately before the administration (0-hour), and at 2, 4, 8, 12, 24, 28, and 32 hours after the administration.

[4] = test system: monkey eyes; assay: Eye irritancy scoring in monkeys (criteria based on Draize test); format: in vivo, cynomolgus monkeys; set-up: key to Eye irritancy (Score) Conjunctivae Chemosis: 0: No swelling; 1: Any swelling above normal (includes nictitating membrane); 2: Obvious swelling with partial eversion of the lids; 3: Swelling with lids about half closed; 4: Swelling with lids about half closed to completely closed; details: 15 μg/eye
Source text: as §1, §2
Eye irritancy was scored according to the criteria presented in Table 4 at the same time points as IOP measurements. These criteria are based on those of Draize test.

[5] = test system: healthy human eyes; details: dose of 5 μg, cited from earlier work
[6] = test system: monkey eyes; details: dose of 3 μg; cited from earlier work
[7] = test system: monkey eyes; details: 50 μg per eye; cited from earlier work
[8] = test system: eye of white rabbits; assay: Incidence of conjunctival hyperemia after single ocular administration; details: 50 μg eye drop, once to one eye, two hours after the administration
Protocol: The presence of conjunctival hyperemia was examined at two hours after the administration and the ratio of cases showing conjunctival hyperemia was evaluated by percent in each group.

Structure (SMILES): CC(C)OC(=O)CCC/C=C\C[C@@H]1[C@@H](CCC(=O)CCc2ccccc2)[C@H](O)C[C@@H]1O [13,14-dihydro-15-keto-17-phenyl-18,19,20-trinor-PGF2α isopropyl ester]
- effect on the cornea, conjunctiva and iris ([1]; 30 μg/eye each 4 times a day for 13 weeks): no effect
- Incidence rate of ocular irritation ([1]; 4 weeks after initiation, 30 μg/eye 4 times/day): 0%
- Incidence rate of ocular irritation ([1]; 8 weeks after initiation, 30 μg/eye 4 times/day): 0%
- Incidence rate of ocular irritation ([1]; 13 weeks after initiation, 30 μg/eye 4 times/day): 0%
- Incidence rate of ocular irritation ([1]; Pre (before initiation of administration)): 0%
- Intraocular pressure lowering effect (difference in IOP between test eye and control eye) ([2]; 4 hours after administration): −1.0 mmHg
- lowered the IOP by, as compared with the control eye ([2]; 4 hours after the administration): 1.0 mmHg
- Intraocular pressure lowering effect (difference in IOP between test eye and control eye) ([2]; 6 hours after administration): −0.8 mmHg
- lowered the IOP by, as compared with the control eye ([2]; 6 hours after the administration): 0.8 mmHg
- Intraocular pressure lowering effect (difference in IOP between test eye and control eye) ([2]; 12 hours after administration): −1.1 mmHg
- lowered the IOP by, as compared with the control eye ([2]; 12 hours after the administration): 1.1 mmHg
- IOP ([3]; 0 hr (immediately before administration), right eye, Mean ± SE): 19.7 ± 0.6 mmHg
- IOP reduction ([3]; topical): significant IOP reduction
- Eye irritancy (Score) Conjunctivae Chemosis ([4]; 2 hr after administration): 0
- Eye irritancy (Score) Conjunctivae Chemosis ([4]; 4 hr after administration): 0
- Eye irritancy (Score) Conjunctivae Chemosis ([4]; 8 hr after administration): 0
- Eye irritancy (Score) Conjunctivae Chemosis ([4]; 12 hr after administration): 0
- Eye irritancy (Score) Conjunctivae Chemosis ([4]; 24 hr after administration): 0
- Eye irritancy (Score) Conjunctivae Chemosis ([4]; 28 hr after administration): 0
- Eye irritancy (Score) Conjunctivae Chemosis ([4]; 32 hr after administration): 0
- Eye irritancy (Score) Conjunctivae Chemosis ([4]; Before administration): 0
- signs or symptoms of ocular irritation ([4]; after topical administration): no signs or symptoms
- intraocular pressure reducing effects ([5]; healthy human eyes): showed intraocular pressure reducing effects
- side effect such as conjunctival hyperemia, ocular irritation and foreign body sensation ([5]; in the human): no side effect
- intraocular pressure reducing effects [6]: showed intraocular pressure reducing effects
- intraocular pressure reducing effects [7]: showed intraocular pressure reducing effects
- Incidence Rate of Conjunctival Hyperemia [8]: 33%
